Reference: US5321046A, “Hypocholesterolemic unsymmetrical dithiol ketals” (Bristol-Myers Squibb Company, priority 1992, dated 1994)
Like-named read-outs stand apart in the source and are kept apart here.

Tests used:
[1] = In vivo cholesterol biosynthesis in hamsters (plasma lipids); design: species or system hamsters (male F1 B)
Procedure: (c) In vivo cholesterol biosynthesis in hamsters was assayed using the following protocol: four groups of hamsters (male F1 B, fed 0.5% cholesterol 10% coconut oil), average weight 120-150 gm, were run in parallel (N=10 per group). The animals were initially fed the atherogenic diet for 20 days to determine their pre-drug plasma lipid levels. They were randomized so that each group had the same average plasma total cholesterol. The three of the four groups were started on their respective drug containing diet (day 0), while the remaining group served as controls.

[2] = tested on: hydroxymethylglutaryl coenzyme A reductase (HMGcoA reductase); experiment: HMGCo-A reductase suppression; format: cell-based
[3] = tested on: HepG2 cells; experiment: HepG2 Cell Culture Model--14C-Acetate Incorporation Assay (cholesterol biosynthesis); format: cell-based; conditions: Homo sapiens
Procedure: (a) Isolated Hepatocyte cholesterol biosynthesis assay: HepG2 Cell Culture Model--14C-Acetate Incorporation Assay
HepG2 cells obtained from the American Type Culture Collection were routinely passed in RPMI-1640 plus 10% fetal bovine serum (FBS) and were subculture into 35 mm diameter wells for experiments. […] The LDS medium supplement was prepared according to Cham et al., J. Lipid Res., 17: 176-181, (1976). After about 16 hours in LDS containing media, test compounds were added in dimethylsulfoxide vehicle (0.5% v/v final conc.) for the period of time indicated in the data (generally 4 hours). Cholesterol synthesis was then directly determined by the incorporation of 2-14C-acetate (1.8-3.0 mCi/mmol) into digitonin-precipitable sterols essentially as described for the rat hepatocyte method above. Greater than 97% of the radiolabelled sterol isolated by this procedure was cholesterol as judged by HPLC. Percent inhibition was calculated from the average of duplicates or triplicates vs. controls receiving vehicle.

[4] = plasma, Day 0 (pre-drug), atherogenic diet, N=10 per group
[5] = HepG2, read-out: HEPG2 Sterol biosynthesis inhibition @ 10 μM
[6] = HepG2 cells, 14C-acetate incorporation, generally 4 hours, read-out: HepG2 @ 10 μM (inhibition of cholesterol biosynthesis)

Row | SMILES | reduction in LDL-cholesterol over control ([1]; F1 B hamsters, over control) | reduction in overall cholesterol over control ([1]; F1 B hamsters, over control) | LDL Cholesterol, Day 0 [1, 4] | Total cholesterol, Day 0 [1, 4] | LDL Cholesterol, Day 21 ([1]; plasma, Day 21, drug containing diet, control 333 ± 137) | Total cholesterol, Day 21 ([1]; plasma, Day 21, drug containing diet, control 407 ± 144) | HMGCo-A reductase suppression @ 10 μM [2] | inhibition at 10 µM [3, 5] | inhibition at 10 µM [3, 6] | down-regulation of HMGcoA reductase (in words) ([2]; in words)
1 | CC(C)=CCCC(C)=CCCC(C)=CCSC(C)(C)Sc1ccc(O)cc1 [Example 11, 4-[[1-Methyl-1-[(3,7,11-trimethyl-2,6,10-dodecatrienyl)thio]ethyl]thio]phenol] | -25% | -18% | 319 ± 89 mg/dL | 399 ± 82 mg/dL | 256 ± 85 mg/dL | 336 ± 90 mg/dL | 37% | 63% | 63% | 
2 | CC(C)=CCCC(C)=CCCC(C)=CCSC(C)(C)Sc1ccc(F)cc1 [Example 36, 4-Fluoro-1-[[1-methyl-1-[(3,7,11-trimethyl-2,6,10-dodecatrienyl)thio]ethyl]thio]benzene] |  |  |  |  |  |  |  |  | 20% | 
3 | CCOC(=O)C(C)(SCC=C(C)CCC=C(C)CCC=C(C)C)Sc1cc(C)c(O)c(C)c1 (stereo not drawn) [Example 27, Propanoic Acid, 2-[(4-hydroxy-3,5-dimethylphenyl)thio]-2-[(3,7,11-trimethyl-2,6,10-dodecatrienyl)thio]ethyl ester] |  |  |  |  |  |  | 51% | 79% | 79% | down-regulate the key enzyme in the cholesterol biosynthesis
4 | CC(=O)Oc1ccc(SC(C)(C)SCC=C(C)CCC=C(C)CCC=C(C)C)c(C)c1 [Example 15, 3-Methyl-4-[[1-methyl-1-[(3,7,11-trimethyl-2,6,10-dodecatrienyl)thio]ethyl]thio]phenol acetate] |  |  |  |  |  |  |  |  | 75% | 
